Results as given in US20120220537A1, “9-AMINOACRIDINE DERIVATIVES, THEIR PREPARATION AND USES” (ARIEL-UNIVERSITY RESEARCH AND DEVELOPMENT COMPANY LTD., priority 2009, published 2012).
Entries after “also recorded” stand apart in the source; their conditions may differ. Like-named read-outs stand apart in the source and are kept apart here.

What was measured:
Assay type in all cases: cell-based
[1] = system: MDM-MD-A31 (renal cancer); assay: In vitro cytotoxicity, neutral red uptake; settings: MDM-MD-A31 cells, 24 h treatment, read-out: anticancer activity (IC50) MDM-MD-A31
Procedure: (§1) Cells (250000/well) were cultured in 24-well plates for 24 h to 70-80% confluence or cells (20000/well) were cultured in 96-well plates for 24 h or overnight to 70-80% confluence. Four 24-well plates and one 96-well plate have been seeded. The following concentrations of the compounds were examined (each one in triplicate)-0 microgram/μl, 0.05 microgram/ml, 0.5 microgram/ml, 5 microgram/ml, 50 microgram/ml. The volume of wells in 24-well plates was 0.5 ml while that of 96-well plates was 0.1 ml. After the 24 h treatment the culture medium in the wells were replaced with 0.5 ml fresh medium containing 1:100 dilution of neutral red (10 microliters/1 ml). The plates were incubated for 2 h in a dark in culture incubator. The medium was aspirated and the cells washed twice with 0.5/0.1 ml of solution containing 1% CaCl2 and 0.5% formaldehyde. The dye was extracted from cells upon addition of 0.5/0.1 ml 1% glacial acetic acid in 50% ethanol with 10 min incubation at room temperature. The absorbance was measured spectrophotometrically at a wavelength of 540 nm. The background absorbance measurement of the multiwell plates was done at 690 nm and subtract from 540 nm.

[2] = system: NCI-ADR (associated with multidrug resistance (MDR) phenomena ovarian cancer); assay: In vitro cytotoxicity, neutral red uptake; settings: NCIADR cells, 24 h treatment, read-out: anticancer activity (IC50) NCIADR
Procedure: as §1

[3] = system: MCF-7mito (mitoxantrone selected and associated with MDR phenomena breast cancer); assay: In vitro cytotoxicity, neutral red uptake; settings: read-out: anticancer activity (IC50) MCF7 mito
Procedure: as §1

H1299 (lung carcinoma) = assay: In vitro cytotoxicity, neutral red uptake; settings: 24 h treatment, read-out: anticancer activity (IC50) H1299
Procedure: as §1

HT29 (colon carcinoma) = assay: In vitro cytotoxicity, neutral red uptake; settings: 24 h treatment, read-out: anticancer activity (IC50) HT29
Procedure: as §1

OVCAR8 (ovarian cancer) = assay: In vitro cytotoxicity, neutral red uptake; settings: 24 h treatment, read-out: anticancer activity (IC50) OVCAR8
Procedure: as §1

MCF-7 (breast cancer) = assay: In vitro cytotoxicity, neutral red uptake; settings: MCF7 wt cells, 24 h treatment, read-out: anticancer activity (IC50) MCF7 wt
Procedure: as §1

[4] = system: cancer cell lines MDM-MD-A31, MCF-7, HT29, OVCAR8, NCI-ADR, MCF-7mito and H1299; assay: In vitro cytotoxicity, all tested cancer cell lines; settings: statement in words
Procedure: as §1

[5] = Homo sapiens, MCF7 mito cells, 24 h treatment, neutral red
[6] = Homo sapiens, NCI-H1299, H1299 cells
[7] = Homo sapiens, HT-29, HT29 cells
[8] = Homo sapiens, OVCAR-8, OVCAR8 cells

Compound | IC50 [1] | IC50 ([2]; Homo sapiens, NCI/ADR-RES) | IC50 [3, 5] | IC50 (H1299 (lung carcinoma); [6]) | IC50 (HT29 (colon carcinoma); [7]) | IC50 (OVCAR8 (ovarian cancer); [8]) | IC50 (MCF-7 (breast cancer); Homo sapiens) | other results
Nc1c2ccccc2nc2ccccc12 [9-aminoacridine] | 1.5 µM | 21 µM | 163 µM | 32.8 µM | 2.25 µM | 1.7 µM | 11.2 µM | 
O=C(O)c1ccccc1CNc1c2ccccc2nc2ccccc12 [Compound 1, 2-(acridin-9-ylaminomethyl)benzoic acid] | 10.3 µM | 12.2 µM | 0.76 µM | 74.3 µM | 1.2 µM | 0.71 µM | 20.2 µM | cytotoxicity compared with reference or other tested compounds [4]: more cytotoxic than the corresponding 9-aminoacridine
O=[N+]([O-])c1ccc(O)cc1CNc1c2ccccc2nc2ccccc12 [Compound 4, N-(2-nitro-5-hydroxy-benzyl)acridin-9-amine] | 75.6 µM | 86.4 µM | 18.4 µM | > 100 µM | 7.14 µM | 15.4 µM | 58.6 µM | 
Oc1ccc2ccccc2c1CNc1c2ccccc2nc2ccccc12 [Compound 8, N-(2-hydroxy-naphthylmethyl)acridin-9-amine] | 13.2 µM | 42.3 µM | 1.8 µM | 62.6 µM | 2.6 µM | 9.1 µM | 14.1 µM | 
O=[N+]([O-])c1ccccc1Nc1c2ccccc2nc2ccccc12 [Compound 10, N-(2-nitrophenyl)acridin-9-amine] | > 100 µM | 40.3 µM | 46.7 µM | > 100 µM | 74.2 µM | > 100 µM | > 100 µM | 
O=[N+]([O-])c1ccc(Nc2c3ccccc3nc3ccccc23)c([N+](=O)[O-])c1 [Compound 12, N-(2,4-dinitrophenyl)acridin-9-amine] | > 100 µM | 15.4 µM |  | > 100 µM | 71.3 µM | 33.8 µM | 89.1 µM | IC50 ([3]; Homo sapiens, MCF7, 24 h): 7.2 µM
O=C(O)c1ccc(Nc2c3ccccc3nc3ccccc23)c([N+](=O)[O-])c1 [Compound 13, 4-(acridin-9-ylamino)-3-nitrobenzoic acid] | 0.6 µM | 54.2 µM | 7.2 µM | 86.4 µM | 3.6 µM | 6.5 µM | 11.6 µM | cytotoxicity compared with reference or other tested compounds [4]: more cytotoxic than the corresponding 9-aminoacridine
NC(=O)c1ccc(Nc2c3ccccc3nc3ccccc23)c([N+](=O)[O-])c1 [Compound 14, 4-(acridin-9-ylamino)-3-nitrobenzamide] | 0.6 µM |  | 7.2 µM |  | 3.6 µM |  |  | 
O=[N+]([O-])c1cc([N+](=O)[O-])c(Nc2c3ccccc3nc3ccccc23)cc1F [Compound 18, N-(2,4-dinitro-5-fluorophenyl)acridin-9-amine] | 0.3 µM |  |  |  |  |  |  | 
COc1cc([N+](=O)[O-])ccc1Nc1c2ccccc2nc2ccccc12 [Compound 20, N-(2-methoxy-4-nitrophenyl)acridin-9-amine] | 0.1 µM |  |  |  | 1.2 µM | 0.6 µM |  | 
O=[N+]([O-])c1cccnc1Nc1c2ccccc2nc2ccccc12 [Compound 21, N-(3-nitropyrid-2-yl)acridin-9-amine] | 0.8 µM |  | 1.6 µM | 0.7 µM |  |  |  | 
O=C1C(Br)=C(Br)C(=O)C(Nc2c3ccccc3nc3ccccc23)=C1Br [Compound 38, 2-(acridin-9-ylamino)-3,5,6-tribromobenzoquinone] |  |  |  |  |  | 3.7 µM |  | 
O=C1C(Cl)=C(Nc2c3ccccc3nc3ccccc23)C(=O)c2ccccc21 [Compound 39, 2-(acridin-9-ylamino)-3-chloronaphthoquinone] | 0.15 µM |  | 0.8 µM |  |  | 1.2 µM |  | 
CCOC1=C(Nc2c3ccccc3nc3ccccc23)C(=O)c2c(O)ccc(O)c2C1=O [Compound 41, 2-(acridin-9-ylamino)-3-ethoxy-5,8-dihydroxy-naphthoquinone] | 0.06 µM |  | 0.5 µM | 0.14 µM | 1.1 µM |  |  | cytotoxicity compared with reference or other tested compounds [4]: greater activity against all above mentioned cell lines than the anticancer drug amsacrine; also recorded: the most potent among the tested compounds
O=C(NC(CO)C(=O)O)c1ccc(Nc2c3ccccc3nc3ccccc23)c([N+](=O)[O-])c1 (stereo not drawn) [Compound 42, (2-(4-(acridin-9-ylamino)-3-nitrobenzamido)-3-hydroxypropanoic acid)] | 0.4 µM |  | 4.5 µM |  | 2.2 µM |  |  | 
NCCCCC(NC(=O)c1ccc(Nc2c3ccccc3nc3ccccc23)c([N+](=O)[O-])c1)C(N)=O (stereo not drawn) [Compound 46, 4-(acridin-9-ylamino)-N-(1,6-diamino-1-oxohex-2-yl)-3-nitro-benzamide] | 75.6 µM | 86.4 µM | 18.4 µM | > 100 µM | 7.14 µM | 15.4 µM | 58.6 µM | 
amsacrine [reference compound] | 17.2 µM |  |  |  |  |  |  | IC50 [2]: 16.1 µM; IC50 ([3]; MCF7 mito cells, 24 h treatment, neutral red): 1.5 µM; IC50 (H1299 (lung carcinoma); H1299 cells): 119 µM; IC50 (HT29 (colon carcinoma); HT29 cells): 2.2 µM; IC50 (OVCAR8 (ovarian cancer); OVCAR8 cells): 21.9 µM; IC50 (MCF-7 (breast cancer)): 19.8 µM
